Experimental data reported in US9085555B2, “Complement pathway modulators and uses thereof” (priority 2011, dated 2015).

molecular target: Factor D (Homo sapiens (Human), UniProt P00746); assay: biochemical; assay type: biochemical; details: read-out: IC50
Sequence (P00746 26-253): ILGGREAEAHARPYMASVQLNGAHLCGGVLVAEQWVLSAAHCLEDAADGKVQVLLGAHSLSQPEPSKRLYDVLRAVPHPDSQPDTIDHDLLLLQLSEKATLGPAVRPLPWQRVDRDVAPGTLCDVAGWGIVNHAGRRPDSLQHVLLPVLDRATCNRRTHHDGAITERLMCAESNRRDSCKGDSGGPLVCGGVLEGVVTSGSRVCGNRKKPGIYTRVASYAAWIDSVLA

| SMILES | IC50 |
| --- | --- |
| NC(=O)c1nn(CC(=O)N2[C@@H]3C[C@@H]3C[C@H]2C(=O)Nc2cccc(C(F)(F)F)n2)c2cnccc12 [Example 732, 1-{2-Oxo-2-[(1R,3S,5R)-3-(6-trifluoromethyl-pyridin-2-ylcarbamoyl)-2-aza-bicyclo [3.1.0]hex-2-yl]-ethyl}-1H-pyrazolo[3,4-c]pyridine-3-carboxylic acid amide] | 0.044 µM |
| CC(=O)c1nn(CC(=O)N2[C@@H]3C[C@@H]3C[C@H]2C(=O)Nc2cccc(C(F)(F)F)n2)c2cnccc12 [Example 733, (1R,3S,5R)-2-[2-(3-Acetyl-pyrazolo[3,4-c]pyridin-1-yl)-acetyl]-2-aza-bicyclo[3.1.0] hexane-3-carboxylic acid (6-trifluoromethyl-pyridin-2-yl)-amide] | 0.025 µM |
| Cc1cc2c(C(N)=O)nn(CC(=O)N3[C@@H]4C[C@@H]4C[C@H]3C(=O)Nc3cccc(Br)n3)c2cn1 [Example 734, 1-{2-[(1R,3S,5R)-3-(6-Bromo-pyridin-2-ylcarbamoyl)-2-aza-bicyclo[3.1.0]hex-2-yl]-2-oxo-ethyl}-5-methyl-1H-pyrazolo [3,4-c]pyridine-3-carboxylic acid amide] | 0.004 µM |
| CCc1cc2c(C(N)=O)nn(CC(=O)N3[C@@H]4C[C@@H]4C[C@H]3C(=O)Nc3cccc(Br)n3)c2cn1 [Example 735, 1-{2-[(1R,3S,5R)-3-(6-Bromo-pyridin-2-ylcarbamoyl)-2-aza-bicyclo[3.1.0]hex-2-yl]-2-oxo-ethyl}-5-ethyl-1H-pyrazolo[3,4-c]pyridine-3-carboxylic acid amide] | 0.003 µM |
| CC(=O)c1nn(CC(=O)N2[C@@H]3C[C@@H]3C[C@H]2C(=O)Nc2cccc(Br)n2)c2cnccc12 [Example 736, (1R,3S,5R)-2-[2-(3-Acetyl-pyrazolo[3,4-c]pyridin-1-yl)-acetyl]-2-aza-bicyclo[3.1.0] hexane-3-carboxylic acid (6-bromo-pyridin-2-yl)-amide] | 0.018 µM |
| C[C@@]12C[C@@H](C(=O)Nc3cccc(OC(F)(F)F)c3F)N(C(=O)Cn3nc(C(N)=O)c4ccncc43)[C@@H]1C2 [Example 738, 1-{2-[(1R,3S,5R)-3-(2-Fluoro-3-trifluoromethoxy-phenylcarbamoyl)-5-methyl-2-aza-bicyclo[3.1.0]hex-2-yl]-2-oxo-ethyl}-1H-pyrazolo[3,4-c] pyridine-3-carboxylic acid amide] | 0.093 µM |
| NC(=O)c1nn(CC(=O)N2C[C@H](F)C[C@H]2C(=O)Nc2cccc(Br)n2)c2ccccc12 [Example 739, 1-{2-[(2S,4R)-2-(6-Bromo-pyridin-2-ylcarbamoyl)-4-fluoro-pyrrolidin-1-yl]-2-oxo-ethyl}-1H-indazole-3-carboxylic acid amide] | 0.023 µM |
| CC(=O)c1nn(CC(=O)N2[C@@H]3C[C@@H]3C[C@H]2C(=O)Nc2cccc(Br)n2)c2ccncc12 [Example 740, (1R,3S,5R)-2-[2-(3-Acetyl-pyrazolo[4,3-c]pyridin-1-yl)-acetyl]-2-aza-bicyclo[3.1.0] hexane-3-carboxylic acid (6-bromo-pyridin-2-yl)-amide] | 0.013 µM |
| NC(=O)c1nn(CC(=O)N2[C@@H]3C[C@@H]3C[C@H]2C(=O)Nc2nc(Br)cs2)c2ccccc12 [Example 742, 1-{2-[(1R,3S,5R)-3-(4-Bromo-thiazol-2-ylcarbamoyl)-2-aza-bicyclo[3.1.0]hex-2-yl]-2-oxo-ethyl}-1H-indazole-3-carboxylic acid amide] | 0.037 µM |
| Cc1cc2c(C(N)=O)nn(CC(=O)N3[C@@H]4C[C@@H]4C[C@H]3C(=O)Nc3cccc(Br)n3)c2c(C)n1 [Example 743, 1-{2-[(1R,3S,5R)-3-(6-Bromo-pyridin-2-ylcarbamoyl)-2-aza-bicyclo[3.1.0]hex-2-yl]-2-oxo-ethyl}-5,7-dimethyl-1H-pyrazolo[3,4-c]pyridine-3-carboxylic acid amide] | 0.005 µM |
| C[C@@]12C[C@@H](C(=O)Nc3cccc(Br)n3)N(C(=O)Cn3nc(C(N)=O)c4ccccc43)[C@@H]1C2 [Example 744, 1-{2-[(1R,3S,5R)-3-(6-Bromo-pyridin-2-ylcarbamoyl)-5-methyl-2-aza-bicyclo[3.1.0]hex-2-yl]-2-oxo-ethyl}-1H-indazole-3-carboxylic acid amide] | 0.004 µM |
| Cc1cc2c(C(N)=O)nn(CC(=O)N3[C@H](C(=O)Nc4cccc(Br)n4)C[C@@]4(C)C[C@@H]34)c2cn1 [Example 745, 1-{2-[(1R,3S,5R)-3-(6-Bromo-pyridin-2-ylcarbamoyl)-5-methyl-2-aza-bicyclo[3.1.0]hex-2-yl]-2-oxo-ethyl}-5-methyl-1H-pyrazolo[3,4-c]pyridine-3-carboxylic acid amide] | 0.005 µM |
| NC(=O)c1nn(CC(=O)N2C[C@H]3C[C@H]3[C@H]2C(=O)Nc2cccc(Br)n2)c2ccccc12 [Example 746, 1-{2-[(1R,2S,5S)-2-(6-Bromo-pyridin-2-ylcarbamoyl)-3-aza-bicyclo[3.1.0]hex-3-yl]-2-oxo-ethyl}-1H-indazole-3-carboxylic acid amide] | 0.007 µM |
| Cc1nccc2c(C(N)=O)nn(CC(=O)N3[C@@H]4C[C@@H]4C[C@H]3C(=O)Nc3cccc(Br)n3)c12 [Example 747, 1-{2-[(1R,3S,5R)-3-(6-Bromo-pyridin-2-ylcarbamoyl)-2-aza-bicyclo[3.1.0]hex-2-yl]-2-oxo-ethyl}-7-methyl-1H-pyrazolo [3,4-c]pyridine-3-carboxylic acid amide] | 0.013 µM |
| CC(=O)c1nn(CC(=O)N2[C@@H]3C[C@@H]3C[C@H]2C(=O)Nc2cccc(Br)n2)c2ccc(OCc3ncccn3)cc12 [Example 748, (1R,3S,5R)-2-{2-[3-Acetyl-5-(pyrimidin-2-ylmethoxy)-indazol-1-yl]-acetyl}-2-aza-bicyclo[3.1.0]hexane-3-carboxylic acid (6-bromo-pyridin-2-yl)-amide] | 0.004 µM |
| NC(=O)c1nn(CC(=O)N2[C@@H]3C[C@@H]3C[C@H]2C(=O)Nc2cccc(Br)n2)c2cc(Cl)ccc12 [Example 749, 1-{2-[(1R,3S,5R)-3-(6-Bromo-pyridin-2-ylcarbamoyl)-2-aza-bicyclo[3.1.0]hex-2-yl]-2-oxo-ethyl}-6-chloro-1H-indazole-3-carboxylic acid amide] | 0.004 µM |
| CC(=O)c1cn(CC(=O)N2[C@@H]3C[C@@H]3C[C@H]2C(=O)Nc2cccc(Br)n2)c2ncccc12 [Example 750, (1R,3S,5R)-2-[2-(3-Acetyl-pyrrolo[2,3-b]pyridin-1-yl)-acetyl]-2-aza-bicyclo[3.1.0] hexane-3-carboxylic acid (6-bromo-pyridin-2-yl)-amide] | 0.034 µM |
| CC(=O)c1cn(CC(=O)N2[C@@H]3C[C@@H]3C[C@H]2C(=O)Nc2cccc(Br)n2)c2ccncc12 [Example 751, (1R,3S,5R)-2-[2-(3-Acetyl-pyrrolo[3,2-c]pyridin-1-yl)-acetyl]-2-aza-bicyclo[3.1.0] hexane-3-carboxylic acid (6-bromo-pyridin-2-yl)-amide] | 0.081 µM |
| CC(=O)c1cn(CC(=O)N2[C@@H]3C[C@@H]3C[C@H]2C(=O)Nc2cccc(Br)n2)c2nnccc12 [Example 752, (1R,3S,5R)-2-[2-(5-Acetyl-pyrrolo[2,3-c]pyridazin-7-yl)-acetyl]-2-aza-bicyclo[3.1.0] hexane-3-carboxylic acid (6-bromo-pyridin-2-yl)-amide] | 0.095 µM |
| CO[C@H]1[C@@H](C(=O)Nc2cccc(Br)n2)N(C(=O)Cn2nc(C(N)=O)c3ccccc32)C[C@@H]1F [Example 754, 1-{2-[(2S,3S,4S)-2-(6-Bromo-pyridin-2-ylcarbamoyl)-4-fluoro-3-methoxy-pyrrolidin-1-yl]-2-oxo-ethyl}-1H-indazole-3-carboxylic acid amide] | 0.005 µM |
| CO[C@H]1[C@@H](C(=O)Nc2cccc(Br)c2F)N(C(=O)Cn2nc(C(N)=O)c3ccccc32)C[C@@H]1F [Example 755, 1-{2-[(2S,3S,4S)-2-(3-Bromo-2-fluoro-phenylcarbamoyl)-4-fluoro-3-methoxy-pyrrolidin-1-yl]-2-oxo-ethyl}-1H-indazole-3-carboxylic acid amide] | 0.017 µM |
| CO[C@H]1[C@@H](C(=O)Nc2cccc(Br)n2)N(C(=O)Cn2nc(C(C)=O)c3ccccc32)C[C@@H]1F [Example 756, (2S,3S,4S)-1-[2-(3-Acetyl-indazole-1-yl)-acetyl]-4-fluoro-3-methoxy-pyrrolidine-2-carboxylic acid (6-bromo-pyridin-2-yl)-amide] | 0.007 µM |
| CC(=O)c1nn(CC(=O)N2[C@@H]3C[C@@H]3C[C@H]2C(=O)Nc2cncc(Br)n2)c2ccccc12 [Example 757, (1R,3S,5R)-2-[2-(3-Acetyl-indazol-1-yl)-acetyl]-2-aza-bicyclo[3.1.0]hexane-3-carboxylic acid (6-bromo-pyrazin-2-yl)-amide] | 0.003 µM |
| NC(=O)c1nn(CC(=O)N2[C@H](C(=O)Nc3cccc(OC(F)(F)F)c3F)C[C@@]3(CO)C[C@@H]23)c2ccccc12 [Example 758, 1-{2-[(1R,3S,5S)-3-(2-Fluoro-3-trifluoromethoxy-phenylcarbamoyl)-5-hydroxymethyl-2-aza-bicyclo[3.1.0]hex-2-yl]-2-oxo-ethyl}-1H-indazole-3-carboxylic acid amide] | 0.064 µM |
| NC(=O)c1nn(CC(=O)N2[C@H](C(=O)Nc3cccc(Br)c3F)C[C@@]3(CO)C[C@@H]23)c2ccccc12 [Example 759, 1-{2-[(1R,3S,5S)-3-(3-Bromo-2-fluoro-phenylcarbamoyl)-5-hydroxymethyl-2-aza-bicyclo[3.1.0]hex-2-yl]-2-oxo-ethyl}-1H-indazole-3-carboxylic acid amide] | 0.009 µM |
| NC(=O)c1nn(CC(=O)N2[C@H](C(=O)Nc3cccc(Br)n3)C[C@@]3(CO)C[C@@H]23)c2ccccc12 [Example 760, 1-{2-[(1R,3S,5S)-3-(6-Bromo-pyridin-2-ylcarbamoyl)-5-hydroxymethyl-2-aza-bicyclo[3.1.0]hex-2-yl]-2-oxo-ethyl}-1H-indazole-3-carboxylic acid amide] | 0.012 µM |
| NC(=O)n1cc(NC(=O)N2C[C@H]3C[C@H]3[C@H]2C(=O)Nc2cccc(Br)n2)c2ccccc21 [Example 763, (1R,2S,5S)-3-Aza-bicyclo[3.1.0]hexane-2,3-dicarboxylic acid 2-[(6-bromo-pyridin-2-yl)-amide]3-[(1-carbamoyl-1H-indol-3-yl)-amide]] | 0.014 µM |
